Experimental data reported in patent publication EP0973746B1, “SUBSTITUTED 3-CYANO QUINOLINES” (Wyeth Holdings Corporation, priority 1997, dated 1998).
Values after ≈ are worked out from the molar mass of the structure shown. Like-named read-outs stand apart in the source and are kept apart here.

Tests used:
[1] = tested on: LS174T; test: Inhibition of cancer cell growth as measured by cell number, LS174T; type: cell-based; conditions: Homo sapiens, 48 h, read-out: IC50 LS174T
[2] = tested on: B7474; test: Inhibition of cancer cell growth as measured by cell number, B7474; type: cell-based; conditions: Homo sapiens, 48 h, read-out: IC50 B7474
[3] = tested on: SKBR3; test: Inhibition of cancer cell growth as measured by cell number, SKBR3; type: cell-based, human; conditions: Homo sapiens, SK-BR-3, 48 h;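 also: SK-BR-3 cells were selected as a line overexpressing HER2/neu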
From the text: (§1) The cell lines were chosen since they overexpressed epidermal growth factor receptor (EGFR) (i.e. A431) or HER2/neu (SKBR3), or had little to no expression of the these receptors (SW620, LOX, MCF7).

[4] = tested on: SW620; test: Inhibition of cancer cell growth as measured by cell number, SW620; type: cell-based, human; conditions: Homo sapiens, SW-620, 48 h;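 also: SW620 was included as a cell line with little or no EGFR or HER2/neu expression, in contrast to receptor-overexpressing lines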
From the text: as §1

[5] = tested on: NEC; test: Inhibition of cancer cell growth as measured by cell number, NEC; type: cell-based; conditions: Homo sapiens, 48 h, read-out: IC50 NEC
[6] = tested on: MCF7; test: Inhibition of cancer cell growth as measured by cell number, MCF7; type: cell-based, human; conditions: Homo sapiens, MCF7, 48 h, read-out: IC50 MCF7, cell number, Sulforhodamine B, 48 hours exposure; Table 5;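 also: MCF7 was included as a line with little or no EGFR or HER2/neu expression, in contrast to the receptor-overexpressing lines of the panel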
From the text: as §1

[7] = tested on: T47D; test: Inhibition of cancer cell growth as measured by cell number, T47D; type: cell-based; conditions: Homo sapiens, 48 h, read-out: IC50 T47D
[8] = tested on: CCRF-CFM; test: Inhibition of cancer cell growth as measured by cell number, CCRF-CFM; type: cell-based; conditions: Homo sapiens, 48 h, read-out: IC50 CCRF-CFM
[9] = biological target: epidermal growth factor receptor kinase (Homo sapiens, UniProt P00533); test: biochemical
Method: The enzyme was obtained as a membrane extract of A431 cells (American Type Culture Collection, Rockville, MD). A431 cells were grown in T175 flasks to 80% confluency. The cells were washed twice with phosphate buffered saline (PBS) without Ca^2+. Flasks were rotated for 1.5 hours in 20 ml PBS with 1.0 mM ethylenediaminetetraacetic acid (EDTA) at room temperature and centrifuged at 600g for 10 minutes. The cells were solubilized in 1 ml per 5 x 10^6 cells of cold lysis buffer {10mM 4-(2-hydroxyethyl)-1-piperazineethane-sulfonic acid (HEPES), pH 7.6, 10 mM NaCl, 2mM EDTA, 1mM phenylmethyl-sulfonyl-fluoride (PMSF), 10 mg/ml aprotinin, 10 mg/ml leupeptin, 0.1 mM sodium orthovanadate} in a Dounce homogenizer with 10 strokes on ice. The lysate was centrifuged at 600g for 10 minutes first to clear cell debris and the supernatant further centrifuged at 100,000 g for 30 min at 4°C. The membrane pellet was suspended in 1.5 ml HNG buffer (50 mM HEPES, pH 7.6, 125 mM NaCl, 10% glycerol). The membrane extract was divided into aliquots, immediately frozen in liquid nitrogen and stored at -70°C.
Compounds to be evaluated were made into 10 mg/ml stock solutions in 100% dimethylsulfoxide (DMSO). Prior to experiment, stock solutions were diluted to 500 mM with buffer (30 mM Hepes pH 7.4) and then serially diluted to the desired concentration.
An aliquot of the A431 membrane extract (10 mg/ml) was diluted in 30 mM HEPES (pH 7.4) to give a protein concentration of 50 ug/ml. […] To this was added the ^33p-ATP (10 mCi/ml) diluted 1:10 in assay buffer along with the substrate peptide at a concentration of 0.5 mM (control reactions get no test compound) and the reaction was allowed to proceed for 30 min at 30°C. The reaction was stopped with 10% TCA and left on ice for at least 10 min after which tubes were microcentrifuged at full speed for 15 min. The a portion of the supernatants were spotted on P81 phosphocellulose discs and washed twice in 1% acetic acid then water for 5 min each followed by scintillation counting. […] The % inhibition of the test compound was determined for at least three different concentrations and the IC50 value was evaluated from the dose response curve. […] CPM(control) is in units of counts per minute and was a number expressing the amount of radiolabeled ATP (g-^33P) incorporated into the RR-SRC peptide substrate by the enzyme after 30 minutes at 30°C in the absence of test compound as measured by liquid scintillation counting. The CPM values were corrected for the background counts produced by ATP in the absence of the enzymatic reaction. The IC50 values reported in TABLE 1 are averages of the number of tests conducted.

[10] = biological target: T1, Kinase insert Domain containing Receptor (KDR: the catalytic domain of the VEGF receptor) (Homo sapiens, UniProt P35968); test: Inhibition of Kinase insert Domain containing Receptor (KDR); type: biochemical; conditions: pH 7.2; radioactive format; read-out: KDR IC50 (converted);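 also: KDR phosphorylating a Glu:Tyr 4:1 copolymer with P32- or P33-labelled ATP, Mg++ and vanadate, read as acid-insoluble radiolabel, compared with compound-free reaction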
T1 construct: KDR: the catalytic domain of the VEGF receptor

[11] = biological target: Epithelial Cell Kinase (ECK) (Homo sapiens, UniProt P29317); test: biochemical
Method: In this standard pharmacological test procedure, a biotinylated peptide substrate is first immobilized on neutravidin-coated microtiter plates. The test drug, the Epithelial Cell Kinase (ECK), Mg^++, sodium vanadate (a protein tyrosine phosphatase inhibitor), and an appropriate buffer to maintain pH (7.2) are then added to the immobilized substrate-containing microtiter wells. ATP is then added to initiate phosphorylation. After incubation, the assay plates are washed with a suitable buffer leaving behind phosphorylated peptide which is exposed to horse radish peroxidase (HRP)-conjugated anti-phosphotyrosine monoclonal antibody. The antibody-treated plates are washed again and the HRP activity in individual wells is quantified as a reflection of degree of substrate phosphorylation.

[12] = biological target: recombinant human MEK 1 (MAPKK) and recombinant human ERK2 (MAPK); test: Mitogen Activated Protein Kinase (MAPK) assay, two component coupled MEK 1 / ERK2; type: biochemical; conditions: separate entries for the same compound = evaluated more than one time;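 also: MEK 1-activated ERK2 phosphorylates MBP or Myc peptide with 33P-ATP, filter capture and scintillation counting, inhibitor preincubated with ERK2 30 min at 0 °C, inhibition relative to uninhibited control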
[13] = biological target: T2, His-tagged cytoplasmic domain of EGFR (Homo sapiens, UniProt P00533); test: Inhibition of Epidermal Growth Factor Receptor Kinase (EGF-R) using recombinant enzyme; type: biochemical; conditions: recombinant enzyme; RR-SRC peptide; average of the number of tests; read-out: IC50;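 also: radiometric kinase assay measuring radiolabeled phosphate transfer from ATP onto the peptide tyrosine by scintillation counting, control is reaction without compound, background subtracted, IC50 from dose-response curve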
T2 construct: containing the EGFR cDNA encoding amino acids 645 - 1186 preceded by Met-Ala-(His)6; made in house; host or cells: Sf9 cells, recombinant baculovirus vHcEGFR52
Method: The enzyme used in this assay is the His-tagged cytoplasmic domain of EGFR.
Compounds to be evaluated were made into 10 mg/mL stock solutions in 100% dimethylsulfoxide (DMSO). Prior to experiment, stock solutions were diluted to 500 µM with 100% DMSO and then serially diluted to the desired concentration with HEPES buffer (30 mM HEPES pH 7.4).
For the enzyme reaction, 10 µL of each inhibitor (at various concentrations) were added to each well of a 96-well plate. […] This was allowed to sit for 10 min on ice and was followed by the addition of 5 µl peptide (80 µM final conc.), 10µl of 4X Buffer (Table A), 0.25 µL ^33P-ATP and 12 µL H2O. The reaction was allowed to run for 90 min at room temperature and was followed by spotting the entire volume on to precut P81 filter papers. The filter discs were washed 2X with 0.5% phosphoric acid and radioactivity was measured using a liquid scintillation counter.
The % inhibition of the test compound was determined for at least three different concentrations and the IC50 value was evaluated from the dose response curve. […] CPM(control) is in units of counts per minute and was a number expressing the amount of radiolabeled ATP (g-33P) incorporated into the RR-SRC peptide substrate by the enzyme after 90 minutes at room temperature in the absence of test compound as measured by liquid scintillation counting. The CPM values were corrected for the background counts produced by ATP in the absence of the enzymatic reaction. The IC50 values reported in TABLE 2 are averages of the number of tests conducted.

[14] = tested on: A431; test: Inhibition of cancer cell growth as measured by cell number, A431; type: cell-based, human; conditions: Homo sapiens, A-431, 48 h, read-out: IC50 A431;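 also: human A431 line, picked because it overexpresses epidermal growth factor receptor (EGFR)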
From the text: as §1

[15] = tested on: LOX; test: Inhibition of cancer cell growth as measured by cell number, LOX; type: cell-based, human; conditions: Homo sapiens, LOX, 48 h, read-out: IC50 LOX;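 also: LOX cells served as a line with low or absent EGFR and HER2/neu expression, in contrast to receptor-overexpressing lines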
From the text: as §1

T2 sequence (P00533 669-1210): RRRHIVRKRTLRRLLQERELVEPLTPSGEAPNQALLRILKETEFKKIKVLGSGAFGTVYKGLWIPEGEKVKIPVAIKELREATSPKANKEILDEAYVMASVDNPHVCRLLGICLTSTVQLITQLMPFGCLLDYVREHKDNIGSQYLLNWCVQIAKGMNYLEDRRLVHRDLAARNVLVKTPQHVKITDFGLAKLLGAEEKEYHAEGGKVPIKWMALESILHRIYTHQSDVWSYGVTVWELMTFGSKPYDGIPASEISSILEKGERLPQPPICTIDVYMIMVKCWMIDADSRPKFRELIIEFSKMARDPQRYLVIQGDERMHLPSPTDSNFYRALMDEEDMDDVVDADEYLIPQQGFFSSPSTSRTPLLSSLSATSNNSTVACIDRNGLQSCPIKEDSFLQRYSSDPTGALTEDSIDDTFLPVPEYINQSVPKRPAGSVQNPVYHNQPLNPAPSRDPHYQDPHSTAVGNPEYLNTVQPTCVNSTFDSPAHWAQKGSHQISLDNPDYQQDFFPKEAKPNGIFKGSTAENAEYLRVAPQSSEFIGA
epidermal growth factor receptor kinase, sequence (P00533 25-1210): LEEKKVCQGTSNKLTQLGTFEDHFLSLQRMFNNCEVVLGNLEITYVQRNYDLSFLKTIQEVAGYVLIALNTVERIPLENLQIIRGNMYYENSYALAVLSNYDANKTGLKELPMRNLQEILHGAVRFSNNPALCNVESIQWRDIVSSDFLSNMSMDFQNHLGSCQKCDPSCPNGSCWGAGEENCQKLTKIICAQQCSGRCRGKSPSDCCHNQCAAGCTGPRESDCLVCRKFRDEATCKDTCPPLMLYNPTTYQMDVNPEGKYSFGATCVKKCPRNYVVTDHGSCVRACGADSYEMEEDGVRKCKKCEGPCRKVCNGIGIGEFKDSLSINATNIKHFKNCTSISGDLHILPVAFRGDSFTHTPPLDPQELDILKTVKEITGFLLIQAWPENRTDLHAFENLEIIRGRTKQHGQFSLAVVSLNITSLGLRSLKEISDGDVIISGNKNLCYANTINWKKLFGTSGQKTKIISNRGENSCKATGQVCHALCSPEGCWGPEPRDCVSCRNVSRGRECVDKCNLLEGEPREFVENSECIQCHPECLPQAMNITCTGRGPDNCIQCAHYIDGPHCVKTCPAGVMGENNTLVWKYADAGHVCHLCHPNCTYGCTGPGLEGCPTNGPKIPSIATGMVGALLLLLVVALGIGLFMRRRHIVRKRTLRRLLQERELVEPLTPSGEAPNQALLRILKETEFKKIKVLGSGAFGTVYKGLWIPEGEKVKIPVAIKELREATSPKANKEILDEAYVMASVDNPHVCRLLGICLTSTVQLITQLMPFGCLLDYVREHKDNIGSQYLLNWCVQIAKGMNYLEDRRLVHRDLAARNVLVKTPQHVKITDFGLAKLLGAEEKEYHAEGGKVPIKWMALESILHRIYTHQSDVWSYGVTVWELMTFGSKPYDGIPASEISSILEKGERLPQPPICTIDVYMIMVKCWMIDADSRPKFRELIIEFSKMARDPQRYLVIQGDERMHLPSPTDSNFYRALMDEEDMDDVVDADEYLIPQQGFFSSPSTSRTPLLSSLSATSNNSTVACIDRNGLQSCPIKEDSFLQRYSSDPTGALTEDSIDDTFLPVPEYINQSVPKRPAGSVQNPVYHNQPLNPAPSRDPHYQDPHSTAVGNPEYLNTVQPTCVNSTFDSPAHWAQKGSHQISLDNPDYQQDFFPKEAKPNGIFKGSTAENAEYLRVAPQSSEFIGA
Epithelial Cell Kinase (ECK), sequence (P29317 24-976, species assumed): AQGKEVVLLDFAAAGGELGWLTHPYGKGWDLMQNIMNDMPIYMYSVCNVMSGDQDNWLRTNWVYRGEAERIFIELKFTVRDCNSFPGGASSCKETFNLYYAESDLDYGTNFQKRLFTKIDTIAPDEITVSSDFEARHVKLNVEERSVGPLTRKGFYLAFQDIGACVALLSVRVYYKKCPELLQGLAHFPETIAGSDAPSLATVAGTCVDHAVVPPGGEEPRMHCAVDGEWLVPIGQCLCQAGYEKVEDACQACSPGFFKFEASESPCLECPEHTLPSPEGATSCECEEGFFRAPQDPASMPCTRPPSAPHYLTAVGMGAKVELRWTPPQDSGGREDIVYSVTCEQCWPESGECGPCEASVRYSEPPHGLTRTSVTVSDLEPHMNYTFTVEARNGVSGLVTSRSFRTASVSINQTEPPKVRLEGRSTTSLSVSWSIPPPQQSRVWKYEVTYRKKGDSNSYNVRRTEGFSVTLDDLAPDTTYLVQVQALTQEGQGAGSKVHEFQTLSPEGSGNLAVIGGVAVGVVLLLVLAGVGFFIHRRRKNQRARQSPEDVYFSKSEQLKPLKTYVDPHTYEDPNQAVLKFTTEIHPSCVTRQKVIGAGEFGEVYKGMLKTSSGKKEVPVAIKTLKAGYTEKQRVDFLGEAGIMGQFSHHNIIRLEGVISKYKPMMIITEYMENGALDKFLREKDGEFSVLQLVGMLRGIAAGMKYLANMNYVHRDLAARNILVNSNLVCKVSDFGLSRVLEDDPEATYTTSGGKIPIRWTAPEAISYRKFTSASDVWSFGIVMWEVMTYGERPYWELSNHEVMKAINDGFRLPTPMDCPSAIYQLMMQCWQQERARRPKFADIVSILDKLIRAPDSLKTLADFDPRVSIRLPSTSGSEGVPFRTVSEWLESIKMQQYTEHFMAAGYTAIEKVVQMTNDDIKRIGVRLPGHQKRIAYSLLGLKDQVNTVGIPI
T1 sequence (P35968 834-1162 limits assumed): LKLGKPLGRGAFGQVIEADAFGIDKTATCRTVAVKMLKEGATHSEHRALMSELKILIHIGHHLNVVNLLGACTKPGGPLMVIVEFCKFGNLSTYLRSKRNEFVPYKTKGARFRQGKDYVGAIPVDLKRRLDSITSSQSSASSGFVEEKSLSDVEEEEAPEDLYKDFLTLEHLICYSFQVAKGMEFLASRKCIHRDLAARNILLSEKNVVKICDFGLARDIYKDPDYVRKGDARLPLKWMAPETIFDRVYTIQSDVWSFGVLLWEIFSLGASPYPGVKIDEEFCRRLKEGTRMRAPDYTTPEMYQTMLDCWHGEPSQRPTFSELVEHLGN

SMILES	IC50 [10]	IC50 [11]	IC50 [12]	other results
COc1cc2ncc(C#N)c(Nc3cccc(C(F)(F)F)c3)c2cc1OC [Example 42, 4-[(3-Trifluoromethylphenyl)amino]-6,7-dimethoxy-3-quinolinecarbonitrile]	–	–	–	IC50 [1]: 5.97 µg/mL (≈ 16 µM); IC50 [2]: 6.78 µg/mL (≈ 18.2 µM); IC50 ([3]; read-out: IC50 SKBR3, cell number, Sulforhodamine B, 48 hours exposure, Table 7): 12.5 µg/mL (≈ 33.6 µM); IC50 ([4]; read-out: IC50 SW620, cell number, Sulforhodamine B, 48 hours exposure, Table 4): 31.2 µg/mL (≈ 83.5 µM); IC50 [5]: 6.47 µg/mL (≈ 17.3 µM); IC50 [6]: 6.14 µg/mL (≈ 16.5 µM); IC50 [7]: 6.78 µg/mL (≈ 18.2 µM); IC50 [8]: 5.23 µg/mL (≈ 14 µM)
N#Cc1cnc2ccc(NC(=O)/C=C/Cl)cc2c1Nc1cccc(Br)c1 [Example 51, N-[4-[(3-Bromophenyl)amino]-3-cyano-6-quinolinyl]-3(E)-chloro-2-propenamide]	–	–	–	IC50 [9]: 0.05 nM
N#Cc1cnc2ccc(NC(=O)/C=C\Cl)cc2c1Nc1cccc(Br)c1 [Example 52, N-[4-[(3-Bromophenyl)amino]-3-cyano-6-quinolinyl]-3(Z)-chloro-2-propenamide]	–	–	–	IC50 [9]: 10 nM
C=C(C)C(=O)Nc1ccc2ncc(C#N)c(Nc3cccc(Br)c3)c2c1 [Example 53, N-[4-[(3-Bromophenyl)amino]-3-cyano-6-quinolinyl]-2-methyl-2-propenamide]	–	–	–	IC50 [9]: 7 nM
C=CC(=O)Nc1ccc2ncc(C#N)c(Nc3ccc(Br)c(Br)c3)c2c1 [Example 54, N-[4-[(3,4-Dibromophenyl)amino]-3-cyano-6-quinolinyl]-2-propenamide]	–	–	–	IC50 [9]: 7 nM
N#Cc1cnc2ccc(NC(=O)C#CCO)cc2c1Nc1cccc(Br)c1 [Example 57, N-[4-[(3-Bromophenyl)amino]-3-cyano-6-quinolinyl]-4-hydroxy-2-butynamide]	–	–	–	IC50 [9]: 8 nM
N#Cc1cnc2ccc(NC(=O)C#CCN3CCOCC3)cc2c1Nc1cccc(Br)c1 [Example 58, N-[4-[(3-Bromophenyl)amino]-3-cyano-6-quinoliny]-4-morpholino-2-butynamide]	–	–	–	IC50 [9]: 2 nM
CN(C)CC#CC(=O)Nc1ccc2ncc(C#N)c(Nc3cccc(Br)c3)c2c1 [Example 59, N-[4-[(3-Bromophenyl)amino]-3-cyano-6-quinolinyl]-4-dimethylamino-2-butynamide]	–	–	–	IC50 [9]: 0.1 nM
COc1cc2c(Nc3ccc(Cl)cc3F)c(C#N)cnc2cc1OCCCCl [Example 76, 4-(4-Chloro-2-fluoro-phenylamino)-7-(3-chloro-propoxy)-6-methoxy-quinoline-3-carbonitrile]	1.67 µM	466 nM	< 1 µM	–
COc1cc2c(Nc3ccc(C)c(O)c3)c(C#N)cnc2cc1OCCN(C)C [Example 82, 7-(2-Dimethylamino-ethoxy)-4-(3-hydroxy-4-methylphenylamino)-6-methoxy-quinoline-3-carbonitrile]	7.64 µM	51000 nM	5.5 µM	–
COc1cc2c(Nc3cc(O)c(Cl)cc3F)c(C#N)cnc2cc1OCCCN(C)C [Example 84, 4-(4-Chloro-2-fluoro-5-hydroxy-phenylamino)-7-(3-dimethylaminopropoxy)-6-methoxy-quinoline-3-carbonitrile]	0.674 µM	449 nM	< 1 µM	–
COc1cc2c(Nc3cc(O)c(Cl)cc3F)c(C#N)cnc2cc1OCCCN1CCOCC1 [Example 85, 4-(4-Chloro-2-fluoro-5-hydroxy-phenylamino)-6-methoxy-7-(3-morpholin-4-yl-propoxy)-quinoline-3-carbonitrile]	0.616 µM	41.1 nM	–	–
C=CC(=O)Nc1ccc2ncc(C#N)c(Nc3cccc(I)c3)c2c1 [Example 129]	–	22700 nM	60 µM	IC50 [13]: 40 nM
CN(C)CC=CC(=O)Nc1ccc2ncc(C#N)c(Nc3ccc(F)c(Cl)c3)c2c1 [Example 145]	> 70.8 µM	> 47200 nM	35 µM	IC50 [14]: 0.03 µg/mL (≈ 0.0708 µM); IC50 [13]: 60 nM; IC50 ([3]; read-out: IC50 SKBR3): 0.03 µg/mL (≈ 0.0708 µM); IC50 ([4]; read-out: IC50 SW620): 0.4 µg/mL (≈ 0.944 µM)
N#Cc1cnc2ccc(NC(=O)C#CCN3CCCCC3)cc2c1Nc1cccc(Br)c1 [Example 169, N-{4-[(3-Bromophenyl)amino]-3-cyano-6-quinolinyl}-4-piperidino-2-butynamide]	–	40900 nM	> 100 µM	IC50 [14]: 0.01 µg/mL (≈ 0.0205 µM); IC50 [13]: 5 nM; IC50 ([3]; read-out: IC50 SKBR3): 0.02 µg/mL (≈ 0.041 µM); IC50 ([4]; read-out: IC50 SW620): 0.1 µg/mL (≈ 0.205 µM)
CCOc1cc2ncc(C#N)c(Nc3cccc(Br)c3)c2cc1OC [Example 176, 4-[(3-Bromophenyl)amino]-7-ethoxy-6-methoxy-3-quinolinecarbonitrile]	7.53 µM	10 nM	> 100 µM	–
CCOc1cc2ncc(C#N)c(Nc3ccc(C)c(O)c3)c2cc1OC [Example 177, 7-Ethoxy-4-[(3-hydroxy-4-methylphenyl)amino]-6-methoxy-3-quinolinecarbonitrile]	0.143 µM	5.7 nM	40 µM	–
CCN(CC)CC#CC(=O)Nc1ccc2ncc(C#N)c(Nc3cccc(Br)c3)c2c1 [Example 187, N-[4-[(3-Bromophenyl)amino]-3-cyano-6-quinolinyl]-4-diethylamino-2-butynamide]	–	> 42000 nM	> 100 µM	IC50 [14]: 0.06 µg/mL (≈ 0.126 µM); IC50 [13]: 0.7 nM; IC50 ([3]; read-out: IC50 SKBR3): 0.06 µg/mL (≈ 0.126 µM); IC50 ([4]; read-out: IC50 SW620): 0.05 µg/mL (≈ 0.105 µM); IC50 [15]: 0.07 µg/mL (≈ 0.147 µM)
CC(C)N(CC#CC(=O)Nc1ccc2ncc(C#N)c(Nc3cccc(Br)c3)c2c1)C(C)C [Example 192, N-[4-[(3-Bromophenyl)amino]-3-cyano-6-quinolinyl]-4-diisopropylamino-2-butynamide]	–	39600 nM	> 100 µM	IC50 [14]: 0.05 µg/mL (≈ 0.0991 µM); IC50 [13]: 0.6 nM; IC50 ([3]; read-out: IC50 SKBR3): 0.03 µg/mL (≈ 0.0595 µM); IC50 ([4]; read-out: IC50 SW620): 0.1 µg/mL (≈ 0.198 µM)
CN(C)CC#CC(=O)Nc1ccc2ncc(C#N)c(Nc3ccc(F)c(Cl)c3)c2c1 [Example 193, N-[4-[(3-Chloro-4-fluorophenyl)amino]-3-cyano-6-quinolinyl]-4-dimethylamino-2-butynamide]	–	47400 nM	50 µM	IC50 [14]: 0.01 µg/mL (≈ 0.0237 µM); IC50 [13]: 1.9 nM; IC50 ([3]; read-out: IC50 SKBR3): 0.003 µg/mL (≈ 0.00711 µM); IC50 ([4]; read-out: IC50 SW620): 0.1 µg/mL (≈ 0.237 µM)
COc1cc2c(Nc3cccc(Br)c3)c(C#N)cnc2c(OC)c1OC [Example 241, 4-(3-Bromo-phenylamino)-6,7,8-trimethoxy-quinoline-3-carbonitrile]	> 72.4 µM	7240 nM	> 100 µM	–
COc1cc2c(Nc3cc(O)c(Cl)cc3F)c(C#N)cnc2c(OC)c1OC [Example 244, 4-(4-Chloro-2-fluoro-5-hydroxy-phenylamino)-6,7,8-trimethoxy-quinoline-3-carbonitrile]	> 74.3 µM	24800 nM	> 100 µM	–
COc1cc2ncc(C#N)c(Nc3c(C)cccc3O)c2cc1OC [Example 246, 4-(2-Hydroxy-6-methyl-phenylamino)-6,7-dimethoxy-quinoline-3-carbonitrile]	> 29.8 µM	6 nM	35 µM	–
COc1ccc2c(Nc3ccc(C)c(O)c3)c(C#N)cnc2c1 [Example 281, 4-(3-hydroxy-4-methyl-phenylamino)-7-methoxy-quinoline-3-carbonitrile]	9.83 µM	3.3 nM	2.5 µM	–
COc1ccc2c(Nc3cc(O)c(Cl)cc3F)c(C#N)cnc2c1 [Example 282, 4-(4-Chloro-2-fluoro-5-hydroxy-phenylamino)-7-methoxy-quinoline-3-carbonitrile]	5.82 µM	2.9 nM	> 100 µM	–
COc1cc2ncc(C#N)c(Nc3ccc(O)cc3C)c2cc1OC [Example 292, 4-(4-Hydroxy-2-methyl-phenylamino)-6,7-dimethoxy-quinoline-3-carbonitrile]	29.8 µM	1.8 nM	> 100 µM	–
COc1cc2ncc(C#N)c(Nc3cccc(SC)c3)c2cc1OC [Example 294, 6,7-Dimethoxy-4-(3-methylsulfanyl-phenylamino)-quinoline-3-carbonitrile]	17.1 µM	2 nM	9 µM	–
COc1cc2ncc(C#N)c(Nc3cc(O)c(Cl)cc3F)c2cc1OC [Example 319, 4-(4-Chloro-2-fluoro-5-hydroxy-phenylamino)-6,7-dimethoxy-quinoline-3-carbonitrile]	1.34 µM	1 nM	< 1 µM	–
